Legend:
[1] = tested on: H2228 lung cancer cell line; test: High-throughput screening, CellTiter-Glo cell viability assay at 100 nM; format: cell-based, human; details: Homo sapiens, NCI-H2228, HTS, compounds at 100 nM, 72 h, read-out: cytotoxicity expressed in IC50, H2228 (results of High throughput screening)
Method: (§1) EBC-1 (obtained from JRCB, https://cellbank.nibiohn.go.jp/english/) and H2228 (obtained from ATCC https://www.lgcstandards-atcc.org/) cell lines were maintained according to the instructions provided by JRCB and ATCC in a 5% CO2 humidified incubator maintained at 37° C. temperature. Effect of compounds on cell viability was measured via CellTiter-Glo® luminescent cell viability assay (Promega, Madison, WI, USA). Cells were plated at 1000 cells/well onto a flat-bottomed, white 96 well plate (BRANDplates, cat. no.: 781965). After 24 h, cells were treated for 72 h with the compounds at 100 nM concentration. After the treatment, medium was removed and CellTiter-Glo® reagent was added. Untreated cells were used as control. The luminescence signal was recorded using a microplate reader (BioTek Synergy 2 Multi-Mode Reader, BioTek, Winooski, VT, USA). Cell viability data (% of untreated control cells) was evaluated with Microsoft Excel.

[2] = tested on: EBC-1 lung cancer cell line; test: as above; format: cell-based, human; details: Homo sapiens, EBC-1, HTS, compounds at 100 nM, 72 h, read-out: cytotoxicity expressed in IC50, EBC-1 (results of High throughput screening)
Method: as §1

For `O=C1C2=C(CCN(Cc3ccccc3)C2)N2CCN=C2N1CC1CCNCC1` [I/96], the IC50 [1] was over 100 nM and the IC50 [2] was over 100 nM.
`[N-]=[N+]=Nc1cccc(CN2C(=O)C3=C(CCN(Cc4cccc(F)c4)C3)N3CCN=C23)c1` [I/105] was tested, and the IC50 [1] was about 100 nM and the IC50 [2] was under 100 nM.
Work on `[N-]=[N+]=Nc1ccc(CN2CCC3=C(C2)C(=O)N(Cc2ccc(N=[N+]=[N-])cc2)C2=NCCN23)cc1` [I/117] yielded an IC50 [1] of over 100 nM and an IC50 [2] of over 100 nM.
Compound `O=C1C2=C(CCN(CC3CCNC3)C2)N2CCN=C2N1Cc1ccc(F)cc1` (stereo not drawn) [I/98] has an IC50 [1] of over 100 nM and an IC50 [2] of over 100 nM.
`Nc1cccc(CN2CCC3=C(C2)C(=O)N(Cc2ccc(C(F)(F)F)c(F)c2)C2=NCCN23)c1` [I/80] gave an IC50 [1] of over 100 nM and an IC50 [2] of over 100 nM.
In the case of `COc1cc(CN2C(=O)C3=C(CCN(Cc4cccc(F)c4)C3)N3CCN=C23)cc(OC)c1OC` [I/57], the IC50 [1] is reported as over 100 nM and the IC50 [2] is reported as over 100 nM.
`O=C1C2=C(CCN(Cc3cc(F)c(F)c(F)c3)C2)N2CCN=C2N1Cc1ccc(F)cc1` [I/25] was tested, and the IC50 [1] was over 100 nM and the IC50 [2] was over 100 nM.
Work on `O=C1C2=C(CCN(Cc3cc(C(F)(F)F)cc(C(F)(F)F)c3)C2)N2CCN=C2N1Cc1ccc(C(F)(F)F)c(F)c1` [I/22] yielded an IC50 [1] of over 100 nM and an IC50 [2] of over 100 nM.
For `Cc1ccccc1CN1C(=O)C2=C(CCN(Cc3cccc(C(F)(F)F)c3)C2)N2CCN=C12` [I/13], the IC50 [1] was over 100 nM and the IC50 [2] was over 100 nM.
In the case of `O=C1C2=C(CCN(Cc3cccc(C(F)(F)F)c3)C2)N2CCN=C2N1Cc1ccc(C(F)(F)F)c(F)c1` [I/33], the IC50 [1] is reported as over 100 nM and the IC50 [2] is reported as over 100 nM.
`[N-]=[N+]=Nc1cccc(CN2C(=O)C3=C(CCN(Cc4ccccc4)C3)N3CCN=C23)c1` [I/102] was tested, and the IC50 [1] was over 100 nM and the IC50 [2] was over 100 nM.
Compound `O=C1C2=C(CCN(Cc3cc(F)cc(F)c3)C2)N2CCN=C2N1Cc1ccc([N+](=O)[O-])cc1F` [I/50] has an IC50 [1] of under 100 nM and an IC50 [2] of under 100 nM.
In the case of `Cc1ccccc1CN1C(=O)C2=C(CCN(Cc3cc(C(F)(F)F)cc(C(F)(F)F)c3)C2)N2CCN=C12` [I/15], the IC50 [1] is reported as over 100 nM and the IC50 [2] is reported as over 100 nM.
With `O=C1C2=C(CCN(Cc3cc(F)c(F)c(F)c3)C2)N2CCN=C2N1Cc1ccc(I)cc1` [I/19] the IC50 [1] was over 100 nM and the IC50 [2] was over 100 nM.
`Nc1cccc(CN2CCC3=C(C2)C(=O)N(Cc2ccc(I)cc2)C2=NCCN23)c1` [I/78] was tested, and the IC50 [1] was over 100 nM and the IC50 [2] was over 100 nM.
For `Cc1ccccc1CN1C(=O)C2=C(CCN(Cc3cccc(N)c3)C2)N2CCN=C12` [I/77], the IC50 [1] was over 100 nM and the IC50 [2] was over 100 nM.
Compound `O=C1C2=C(CCN(Cc3ccccc3)C2)N2CCN=C2N1Cc1ccc(Br)cc1` [I/41] has an IC50 [1] of under 100 nM and an IC50 [2] of over 100 nM.
`Nc1cccc(CN2CCC3=C(C2)C(=O)N(Cc2ccc(C(F)(F)F)cc2)C2=NCCN23)c1` [I/79] showed an IC50 [1] of over 100 nM and an IC50 [2] of over 100 nM.
Work on `Nc1ccc(CN2CCC3=C(C2)C(=O)N(CC2CCNCC2)C2=NCCN23)cc1` [I/93] yielded an IC50 [1] of over 100 nM and an IC50 [2] of over 100 nM.
With `[N-]=[N+]=Nc1ccc(CN2CCC3=C(C2)C(=O)N(CC2CCNCC2)C2=NCCN23)cc1` [I/119] the IC50 [1] was over 100 nM and the IC50 [2] was over 100 nM.
`[N-]=[N+]=Nc1ccc(CN2CCC3=C(C2)C(=O)N(Cc2ccc(C(F)(F)F)cc2)C2=NCCN23)cc1` [I/110] gave an IC50 [1] of over 100 nM and an IC50 [2] of over 100 nM.
`Cc1ccccc1CN1C(=O)C2=C(CCN(Cc3ccc(F)c(F)c3)C2)N2CCN=C12` [I/14] gave an IC50 [1] of over 100 nM and an IC50 [2] of over 100 nM.
Compound `[N-]=[N+]=Nc1ccc(CN2CCC3=C(C2)C(=O)N(Cc2ccc(C(F)(F)F)c(F)c2)C2=NCCN23)cc1` [I/114] has an IC50 [1] of over 100 nM and an IC50 [2] of over 100 nM.
`NCc1cccc(CN2CCC3=C(C2)C(=O)N(Cc2ccc(C(F)(F)F)cc2)C2=NCCN23)c1` [I/69] gave an IC50 [1] of over 100 nM and an IC50 [2] of over 100 nM.
Compound `[N-]=[N+]=Nc1ccc(CN2C(=O)C3=C(CCN(Cc4cccc(F)c4)C3)N3CCN=C23)cc1` [I/106] has an IC50 [1] of over 100 nM and an IC50 [2] of about 100 nM.
`Nc1ccc(CN2CCC3=C(C2)C(=O)N(Cc2ccc(N)cc2)C2=NCCN23)cc1` [I/85] showed an IC50 [1] of over 100 nM and an IC50 [2] of over 100 nM.
Work on `COCCOc1cc2ncnc(Nc3cccc(-c4cn(-c5ccc(CN6C(=O)C7=C(CCN(Cc8ccccc8)C7)N7CCN=C67)cc5)nn4)c3)c2cc1OCCOC` [I/123] yielded an IC50 [1] of over 100 nM and an IC50 [2] of over 100 nM.
